Test results from article PMC5706701, “Development of a homogenous high-throughput assay for inositol hexakisphosphate kinase 1 activity” (PLoS ONE, 2017).
Structures can show the parent of a compound that is named as a salt. Where two headings read alike, the source gives them in different places.

Biological target: T1, Human IP6K1 (Homo sapiens, UniProt Q92551)
T1 construct: GST (N, cleaved yes); made in house; host or cells: C43 E. coli, pGEX-6P-2
Assay: IP6K1 high-throughput screen of the Sigma LOPAC (ADP-Glo Max, single point);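 further: final compound concentration 10µM in 5% DMSO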
Format: biochemical

[1] = Sigma LOPAC single-point screen, ADP-Glo Max raw signal per well
[2] = Sigma LOPAC single-point screen, Z-score from plate average and StDev
[3] = LOPAC single-point screen, ADP-Glo Max luminescence raw signal per well
[4] = LOPAC single-point screen, Z-score relative to plate average and StDev
[5] = LOPAC single-point screen, ADP-Glo Max raw signal per well
[6] = LOPAC single-point screen, Z-score from raw signal with plate average and StDev
[7] = LOPAC single-point screen, Z-score against plate average and StDev
[8] = LOPAC single-point screen, Z-score from plate average and StDev

T1 sequence (Q92551 whole entry): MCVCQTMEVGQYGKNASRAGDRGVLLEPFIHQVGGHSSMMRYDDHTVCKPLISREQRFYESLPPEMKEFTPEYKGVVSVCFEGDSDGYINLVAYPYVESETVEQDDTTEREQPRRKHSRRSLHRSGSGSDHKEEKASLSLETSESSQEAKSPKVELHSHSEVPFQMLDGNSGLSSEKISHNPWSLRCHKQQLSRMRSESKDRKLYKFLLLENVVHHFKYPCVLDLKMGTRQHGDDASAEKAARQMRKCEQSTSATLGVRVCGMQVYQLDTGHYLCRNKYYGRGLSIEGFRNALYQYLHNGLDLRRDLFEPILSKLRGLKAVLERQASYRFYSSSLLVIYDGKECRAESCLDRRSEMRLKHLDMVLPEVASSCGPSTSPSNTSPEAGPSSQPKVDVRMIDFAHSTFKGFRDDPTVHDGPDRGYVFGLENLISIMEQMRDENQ

N[C@H](CCCCCP(=O)(O)O)C(=O)O [D(-)-2-Amino-7-phosphonoheptanoic acid]
Raw Signal [1]: 62778 | Z-score [2]: 0.8568

C#CC(N)CCC(=O)O (centres unmarked) [gamma-Acetylinic GABA]
Raw Signal [3]: 54991 | Z-score [4]: -0.5147

CC(N/C(=N\C#N)Nc1ccncc1)C(C)(C)C (centres unmarked) [Pinacidil]
Raw Signal [5]: 55394 | Z-score [6]: -0.1224

NCCCCN=C(N)N [Agmatine sulfate]
Raw Signal [5]: 56032 | Z-score [6]: -0.3313

O=C(O)Cc1ccc(O)c(O)c1 [3,4-Dihydroxyphenylacetic acid]
Raw Signal [1]: 57060 | Z-score [2]: 0.3844

Ic1ccccc1CNC1C2CCN(CC2)C1C(c1ccccc1)c1ccccc1.O=C(O)C(=O)O [L-703,606 oxalate]
Raw Signal [5]: 52840 | Z-score [6]: -0.261

NC(=O)COc1c(F)cc(SCCNS(=O)(=O)c2ccccc2)cc1F
Raw Signal [5]: 52796 | Z-score [6]: -0.2684

COc1ccc2c(c1)c(CC(=O)O)c(C)n2Cc1ccc(Cl)cc1
Raw Signal [1]: 64773 | Z-score [2]: 1.208

Nc1ccc(CCNc2ncnc3c2ncn3[C@@H]2O[C@H](CO)[C@@H](O)[C@H]2O)cc1 [N6-2-(4-Aminophenyl)ethyladenosine]
Raw Signal [3]: 51199 | Z-score [4]: -1.183

CN1C2CCC1CC(OC(=O)c1c[nH]c3ccccc13)C2.Cl (centres unmarked)
Raw Signal [5]: 56078 | Z-score [7]: 0.01053

O=c1[nH]c2ccccc2n1CCCN1CCN(C(c2ccccc2)c2ccccc2)CC1 [Oxatomide]
Raw Signal [5]: 55062 | Z-score [7]: 0.1123

CN1CCN(CCCN2c3ccccc3Sc3ccc(Cl)cc32)CC1 [Prochlorperazine dimaleate]
Raw Signal [1]: 58817 | Z-score [2]: 0.5427

CC(C)NP(=O)(NC(C)C)OP(=O)(NC(C)C)NC(C)C [Tetraisopropyl pyrophosphoramide]
Raw Signal [5]: 57279 | Z-score [7]: 0.2439

CS(=O)(=O)Nc1ccc([N+](=O)[O-])cc1Oc1ccccc1 [Nimesulide]
Raw Signal [5]: 51877 | Z-score [6]: -0.4228

Oc1ccc(C2CNCCc3c2cc(O)c(O)c3Cl)cc1 (centres unmarked) [Fenoldopam bromide]
Raw Signal [1]: 59808 | Z-score [2]: 0.9425

COc1cccc(C(=O)NCCN2CCN(c3ccc(Cl)cc3)CC2)c1
Raw Signal [5]: 55564 | Z-score [6]: -0.4137

O=C(O)/C=C\C(=O)O.O=C(O)/C=C\C(=O)O.c1cc(CN2CCCCC2)cc(OCCCNc2nc3ccccc3s2)c1 [SKF 95282 dimaleate]
Raw Signal [5]: 54088 | Z-score [6]: -0.3761

COc1cc(OC)cc(C(CNc2ncnc3c2ncn3[C@@H]2O[C@H](CO)[C@@H](O)[C@H]2O)c2ccccc2C)c1 (some centres unmarked) [DPMA]
Raw Signal [5]: 54367 | Z-score [6]: -0.1625

CCCCCCCCCCCCC/C=C/[C@@H](O)[C@@H](N)CO [Sphingosine]
Raw Signal [3]: 64012 | Z-score [8]: 1.552

COC(=O)[C@H](NC(=O)c1cc(-c2ccccc2)nc2ccccc12)c1ccccc1 [SB 218795]
Raw Signal [1]: 57840 | Z-score [2]: 0.5429

N[C@H](C(=O)O)[C@H]1C[C@@H]1C(=O)O
Raw Signal [5]: 55555 | Z-score [7]: 0.07879

C=C(C)[C@H]1Cc2c(ccc3c2O[C@@H]2COc4cc(OC)c(OC)cc4[C@@H]2C3=O)O1 [Rotenone]
Raw Signal [1]: 59768 | Z-score [2]: 0.7274

CN(C)C(=O)Oc1ccc[n+](C)c1 [Pyridostigmine bromide]
Raw Signal [5]: 56672 | Z-score [7]: 0.1259

C[C@]12CCC(=O)C=C1CC[C@@H]1[C@@H]2CC[C@@]2(C)[C@H]1CC[C@]2(O)C(=O)CO [Cortexolone]
Raw Signal [5]: 55575 | Z-score [7]: -0.08719

N[C@@H](Cn1ccc(=O)[nH]c1=O)C(=O)O [S(-)-Willardiine]
Raw Signal [5]: 55281 | Z-score [6]: -0.1443

O=C1NCN(c2ccccc2)C12CCN(CCCC(c1ccc(F)cc1)c1ccc(F)cc1)CC2 [Fluspirilene]
Raw Signal [3]: 52037 | Z-score [4]: -0.6357

c1ccc2c(c1)OCC(C1=NCCN1)O2 (centres unmarked) [Idazoxan hydrochloride]
Raw Signal [1]: 58161 | Z-score [2]: 0.633

O=c1oc(Cl)c(Cl)c2ccccc12 [3,4-Dichloroisocoumarin]
Raw Signal [3]: 52609 | Z-score [4]: -0.5195

C=C(C)[C@H]1CN[C@H](C(=O)O)[C@H]1CC(=O)O [Kainic acid]
Raw Signal: 54485 | Z-score: 0.01537

CCC1(C2=NCCN2)Cc2ccccc2O1 (centres unmarked) [Efaroxan hydrochloride]
Raw Signal [5]: 53966 | Z-score [6]: -0.2439

O=C1Cc2c([nH]c3ccc(Br)cc23)-c2ccccc2N1 [Kenpaullone]
Raw Signal [3]: 65095 | Z-score [8]: 1.798
